pIC50: −log10 of the molar value.
Legend:
[1] = tested on: Jurkat; assay: In vitro growth inhibition of FLT3 wild-type normal expressing cells Jurkat; assay type: cell-based; details: Homo sapiens, cells normally expressing FLT3 wild-type
Protocol: (§1) Adherent cells were digested with 0.25% trypsin-EDTA (Gibco). Suspension culture cells were collected by centrifugation (1700 rpm, 3 minutes). The supernatant was discarded and the cells were counted. According to each cell growth cycle, different concentrations of cells were prepared (5˜10×10^4 cells per ml), and inoculated to 96-well plates (Corning), with 100 μl per well, and incubated overnight at 37° C., 5% CO2. The next day, the test compound was added to the cultured cells (2 wells in parallel). The final concentration of the solvent was less than 1/1,000. The cells were further cultured for 3 to 5 days and assayed by MTT.
(§2) The MTT test reagent was a Dojindo CCK8 kit and the Microplate Reader was a THERMO […] FC instrument.
(§3) The adherent cells were taken out from the cell culture medium, and immediately added to a freshly prepared complete medium containing 10% CCK8 (5% FBS), 100 ul per hole. The suspended cells were directly added to a CCK8 reagent until reaching a final concentration of 10% and cultured for 1 to 4 hours. When a dark yellow color could be observed in the solvent control wells, the absorbance value at OD450 nm was measured and the cell growth rate was calculated according to the following formula: Cell Growth Rate (%)=100×(T−T0)/(C−T0)
(§4) T=optical density of drug-treated cell wells−optical density of blank control wells; T0=optical density of cell wells before drug treatment−optical density of blank control wells; C=optical density of solvent control wells−optical density of blank control wells. […] The experiments were repeated 1 to 3 times and a statistical analysis of data was conducted.
(§5) The present compounds which has a high growth inhibition activity on tumor cells positive expressing FLT3-ITD were selected for the determination of IC50 concentration on FLT3 wild tyoverexpressing cells RS4:11 and FLT3 wild-type normal expressing cells Jurkat. The specific test method is the same as that of test example 1.

[2] = tested on: RS4:11; assay: In vitro growth inhibition of FLT3 wild type overexpressing cells RS4:11; assay type: cell-based; details: Homo sapiens, cells over expressing FLT3 wild-type
Protocol: as §1, §2, §3, §4, §5

[3] = tested on: Hep3B2 (FGFR3/4+++); assay: In vitro growth inhibition of Hep3B2 tumor cells (MTT/CCK8); assay type: cell-based, Human; details: Homo sapiens, Hep3B; in vitro growth inhibition (or induction of apoptosis), cells cultured 3 to 5 days, MTT (CCK8); read-out: IC50 Hep3B2 (FGFR3/4+++)
[4] = tested on: MOLM-13 (FLT3-ITD); assay: In vitro growth inhibition of MOLM-13 tumor cells (MTT/CCK8); assay type: cell-based, Human; details: Homo sapiens, MOLM-13; in vitro growth inhibition (or induction of apoptosis), cells cultured 3 to 5 days, MTT (CCK8); read-out: IC50 MOLM-13 (FLT3-ITD)
[5] = tested on: KATO III (FGFR2 amp); assay: In vitro growth inhibition of KATO III tumor cells (MTT/CCK8); assay type: cell-based, Human; details: Homo sapiens, KATO III; in vitro growth inhibition (or induction of apoptosis), cells cultured 3 to 5 days, MTT (CCK8); read-out: IC50 KATO III (FGFR2 amp)
[6] = tested on: Karpas 299 (NPM-ALK); assay: In vitro growth inhibition of Karpas 299 tumor cells (MTT/CCK8); assay type: cell-based, Human; details: Homo sapiens, KARPAS-299; in vitro growth inhibition (or induction of apoptosis), cells cultured 3 to 5 days, MTT (CCK8); read-out: IC50 Karpas 299 (NPM-ALK)
[7] = tested on: KCL-22 (BCR-ABL); assay: In vitro growth inhibition of KCL-22 tumor cells (MTT/CCK8); assay type: cell-based, Human; details: Homo sapiens, KCL-22; in vitro growth inhibition (or induction of apoptosis), cells cultured 3 to 5 days, MTT (CCK8); read-out: IC50 KCL-22 (BCR-ABL)
[8] = tested on: Kasumi-1 (KIT N822K); assay: In vitro growth inhibition of Kasumi-1 tumor cells (MTT/CCK8); assay type: cell-based, Human; details: Homo sapiens, Kasumi 1; in vitro growth inhibition (or induction of apoptosis), cells cultured 3 to 5 days, MTT (CCK8); read-out: IC50 Kasumi-1 (KIT N822K)
[9] = tested on: H1581 (FGFR1 amp); assay: In vitro growth inhibition of H1581 tumor cells (MTT/CCK8); assay type: cell-based, Human; details: Homo sapiens, NCI-H1581; in vitro growth inhibition (or induction of apoptosis), cells cultured 3 to 5 days, MTT (CCK8); read-out: IC50 H1581 (FGFR1 amp)
[10] = tested on: H1703 (PDGFRa amp); assay: In vitro growth inhibition of H1703 tumor cells (MTT/CCK8); assay type: cell-based, Human; details: Homo sapiens, NCI-H1703; in vitro growth inhibition (or induction of apoptosis), cells cultured 3 to 5 days, MTT (CCK8); read-out: IC50 H1703 (PDGFRa amp)
[11] = tested on: human non-small cell lung cancer cell line NCI-H1299 (NRAS Q61K mutation); assay: Growth inhibition in combination with MEK1/2 inhibitor Trametinib, NCI-H1299 (NRAS Q61K mutation); assay type: cell-based; details: 5 days
Protocol: (§6) Test Example 5 Synergistic Inhibition Effect of the Present Compounds in Combination with MEK1/2 Inhibitor on the Growth of RAS Mutant Tumor Cells In Vitro
(§7) The cell culture, drug treatment and MTT assay of human intestinal cancer cell line HCT116 (KRAS G13D mutation) and human non-small cell lung cancer cell line NCI-H1299 (NRAS Q61K mutation) were performed according to the method of test example 1. Cells were treated with the MEK1/2 inhibitor Trametinib at 25 nM, 2.5 nM and 0.25 nM alone or in combination with compound 66 or 125 of the present invention (5 days).

[12] = tested on: human intestinal cancer cell line HCT116 (KRAS G13D mutation); assay: Growth inhibition in combination with MEK1/2 inhibitor Trametinib, HCT116 (KRAS G13D mutation); assay type: cell-based; details: 5 days
Protocol: as §6, §7

[13] = compound 7.8 nM + Trametinib 0.25 nM
[14] = compound 7.8 nM + Trametinib 2.5 nM
[15] = compound 7.8 nM + Trametinib 25 nM
[16] = compound 15.6 nM + Trametinib 0.25 nM
[17] = compound 15.6 nM + Trametinib 2.5 nM
[18] = compound 15.6 nM + Trametinib 25 nM

Row | pIC50 [2] | pIC50 [3] | pIC50 [4] | pIC50 [5] | pIC50 [6] | pIC50 [7] | pIC50 [8] | pIC50 [9] | pIC50 [10] | SMILES | other results
1 | 6.43 | 7.34 | > 10.30 | 8.53 | 6.85 | 7.73 | 7.45 | 7.71 | 7.76 | COc1cc2nccc(Oc3ccc(NC(=O)Nc4cc(C(C)(C)C)on4)cc3Cl)c2cc1C(N)=O [Compound 8, 4-{4-[3-(5-tert-butyl-isoxazol-3-yl)-ureido]-2-chloro-phenoxy}-7-methoxyquinolin-6-carboxamide] | pIC50 [1]: 6.54
2 |  | 7.08 | 7.71 | 8.53 | 6.29 | 8.49 | 9.39 | 8.08 | 7.34 | COc1cc2nccc(Oc3ccc(NC(=O)Nc4cc(C(C)(C)C)nn4C)c(C)c3C)c2cc1C(N)=O [Compound 110, 4-{4-[3-(5-tert-butyl-2-methyl-2H-pyrazol-3-yl)-ureido]-2,3-dimethyl-phenoxy}-7-methoxy-quinolin-6-carboxamide] | 
3 |  | < 6.00 | < 6.00 | 6.13 | < 6.00 | < 5.30 | < 6.00 | < 6.00 | < 6.00 | CC(C)(C)c1cc(NC(=O)Nc2ccc(Oc3cc(C(F)(F)F)nc4ccccc34)cc2Cl)no1 [Compound 115, 1-(5-tert-butyl-isoxazol-3-yl)-3-[2-chloro-4-(2-trifluoromethyl-quinolin-4-yloxy)-phenyl]-urea] | 
4 |  |  | 8.92 | 9.64 |  |  |  | 8.97 |  | COCCOc1cc2nccc(Oc3ccc(NC(=O)Nc4cc(C(C)(C)C)nn4C4CC4)c(Cl)c3)c2cc1NC(C)=O [Compound 125] | inhibition at 0.0078 µM ([11]; Homo sapiens, NCI-H1299, 120 h, compound 7.8 nM alone (solvent instead of Trametinib), read-out: cell growth inhibition (percentage)): 1.63%; inhibition at 0.0156 µM ([11]; Homo sapiens, NCI-H1299, 120 h, compound 15.6 nM alone (solvent instead of Trametinib), read-out: cell growth inhibition (percentage)): 6.5%; cell growth inhibition (percentage) [11, 13]: 9.27%; cell growth inhibition (percentage) [11, 14]: 24.38%; cell growth inhibition (percentage) [11, 15]: 46.25%; cell growth inhibition (percentage) [11, 16]: 19.92%; cell growth inhibition (percentage) [11, 17]: 34.72%; cell growth inhibition (percentage) [11, 18]: 58.26%; inhibition at 0.0078 µM ([12]; Homo sapiens, HCT-116, 120 h, compound 7.8 nM alone (solvent instead of Trametinib), read-out: cell growth inhibition (percentage)): 14.5%; inhibition at 0.0156 µM ([12]; Homo sapiens, HCT-116, 120 h, compound 15.6 nM alone (solvent instead of Trametinib), read-out: cell growth inhibition (percentage)): 19.9%; cell growth inhibition (percentage) [12, 13]: 62.54%; cell growth inhibition (percentage) [12, 14]: 76.01%; cell growth inhibition (percentage) [12, 15]: 82.04%; cell growth inhibition (percentage) [12, 16]: 71.98%; cell growth inhibition (percentage) [12, 17]: 79.72%; cell growth inhibition (percentage) [12, 18]: 82.82%

More lines, now with the values behind:

Row | SMILES | pIC50 [2] | pIC50 [3] | pIC50 [4] | pIC50 [5] | pIC50 [6] | pIC50 [7] | pIC50 [8] | pIC50 [9] | pIC50 [10] | other results
5 | COc1cc2nccc(Oc3ccc(NC(=O)Nc4cc(C(C)(C)C)on4)cc3)c2cc1C(N)=O [Compound 1, 4-{4-[3-(5-tert-butyl-isoxazol-3-yl)-ureido]-phenoxy}-7-methoxyquinolin-6-carboxamide] | 6.73 | 6.55 | > 10.30 | 8.89 | 6.40 | 7.19 | 7.05 | 7.79 | 8.02 | pIC50 [1]: 6.28
6 | COc1cc2nccc(Oc3ccc(NC(=O)Nc4cc(C(C)(C)C)on4)cc3Br)c2cc1C(N)=O [Compound 7, 4-{2-Bromo-4-[3-(5-tert-butyl-isoxazol-3-yl)-ureido]-phenoxy}-7-methoxyquinolin-6-carboxamide] | 6.43 | 7.08 | > 10.30 | 8.20 | 6.73 | 7.70 | 7.34 | 7.26 | 7.71 | pIC50 [1]: 6.52
7 | CNC(=O)c1cc2c(Oc3ccc(NC(=O)Nc4cc(C(C)(C)C)n[nH]4)cc3Cl)ccnc2cc1OC [Compound 54, 4-{4-[3-(5-tert-butyl-2H-pyrazol-3-yl)-ureido]-2-chloro-phenoxy}-7-methoxyquinolin-6-carboxylic acid methylamide] | 6.27 | 6.81 | 9.57 | 8.26 | 6.95 | 7.62 | 7.58 | 7.27 | 7.15 | 
8 | COc1cc2nccc(Oc3ccc(NC(=O)Nc4cc(C(C)(C)C)n[nH]4)cc3F)c2cc1NC(C)=O [Compound 102, N-(4-{4-[3-(5-tert-butyl-2H-pyrazol-3-yl)-ureido]-2-fluoro-phenoxy}-7-methoxy-quinolin-6-yl)-acetamide] | 6.30 | 7.12 | > 10.30 | 8.88 | < 6.00 | 7.99 | 7.01 | 8.08 | 7.15 | 
9 | CC(C)(C)c1cc(NC(=O)Nc2ccc(Oc3ccnc4c(F)cccc34)cc2Cl)no1 [Compound 113, 1-(5-tert-butyl-isoxazol-3-yl)-3-[2-chloro-4-(8-fluoro-quinolin-4-yloxy)-phenyl]-urea] |  | < 6.00 | < 6.30 | 6.30 | < 6.00 | < 6.00 | < 6.00 | < 6.00 | 6.25 | 
10 | CC(C)(C)c1cc(NC(=O)Nc2ccc(Oc3ccnc4c(C(F)(F)F)cccc34)cc2Cl)no1 [Compound 114, 1-(5-tert-butyl-isoxazol-3-yl)-3-[2-chloro-4-(8-trifluoromethyl-quinolin-4-yloxy)-phenyl]-urea] |  | < 6.00 | < 6.00 | < 6.00 | < 6.00 | < 5.30 | < 6.00 | < 6.00 | < 6.00 | 
11 | CC(=O)Nc1cccc(-n2c(=O)n(C3CC3)c(=O)c3c(Nc4ccc(I)cc4F)n(C)c(=O)c(C)c32)c1 [Trametinib, reference compound] |  |  |  |  |  |  |  |  |  | inhibition at 0.00025 µM ([11]; Homo sapiens, NCI-H1299, 120 h, Trametinib 0.25 nM alone, read-out: cell growth inhibition (percentage)): 2.2%; inhibition at 0.0025 µM ([11]; Homo sapiens, NCI-H1299, 120 h, Trametinib 2.5 nM alone, read-out: cell growth inhibition (percentage)): 6.31%; inhibition at 0.025 µM ([11]; Homo sapiens, NCI-H1299, 120 h, Trametinib 25 nM alone, read-out: cell growth inhibition (percentage)): 15.5%; inhibition at 0.00025 µM ([12]; Homo sapiens, HCT-116, 120 h, Trametinib 0.25 nM alone, read-out: cell growth inhibition (percentage)): 12.1%; inhibition at 0.0025 µM ([12]; Homo sapiens, HCT-116, 120 h, Trametinib 2.5 nM alone, read-out: cell growth inhibition (percentage)): 27.7%; inhibition at 0.025 µM ([12]; Homo sapiens, HCT-116, 120 h, Trametinib 25 nM alone, read-out: cell growth inhibition (percentage)): 75.1%
